Source: patent publication US5677285A, “Derivatives of neuraminic acid” (Fidia S.P.A., priority 1992, dated 1997)

Test system: C1300 mouse neuroblastoma cells, Neuro-2a clone
Assay: Neuritogenic activity (cells with neurites, optical microscopy)
Assay type: cell-based
Protocol: C1300 mouse neuroblastoma cells, Neuro-2a clone, (American Cell Type Culture Collection, Bethesda, Md.) were grown at a density of 10,000 cells/well in a culture medium containing Dulbecco's modified Eagle medium (DMEM, Flow), 10% fetal calf serum (FCS, batch IP 02, Seromed), penicillin (100 units per ml, Irvine), and L-glutamine (2 mM, Sigma). Cells were incubated at 37° C. for 24 hours, and medium was removed and substituted with 350 μl of fresh medium plus compounds to be tested.
Tested Compounds and Their Solubilization
Compounds ND35 and ND37 were solubilized at a concentration of 1×10^-2 M in dimethylsulfoxide (1% DMSO). For the different compounds, progressive dilutions in culture medium were performed (concentrations from 1×10^-5 to 1×10^-4 M).
Neuritogenic activity (cell number with neurites, optical microscopy)
Culture plates were incubated with compounds to be tested and analyzed using a phase contrast microscope (250×). Nine fields with prefixed coordinates were chosen and photographed. Then the total number of cells and those with neurites (length at least double the cell diameter) were counted in blind in each photograph. The percentage of cells with neurites was determined after counting of at least 100 cells (Facci L. et al.: Promotion of neuritogenesis in mouse neuroblastoma cells by exogenous ganglioside GM1. J. Neurochem. Raven Press, New York, 299-305,1984).

CCCCCCCCCCCCCCCC(=O)NC1C(O)CC(OCC)(C(=O)NCCCN(C)C)OC1C(O)C(O)CO (centres unmarked) [ND35, 2-ethylglycoside of N-palmitoyl-neuraminic acid dimethylaminopropylamide]
Cells with neurities (%) (1 × 10^-4 M): 39 ± 7% | Cells with neurities (%) (1 × 10^-5 M): 7 ± 2% | neuritogenesis in vitro (1×10^-5 to 1×10^-4 M): induce neuritogenesis | Cells with neurities (%) (2.5 × 10^-5 M): 7 ± 3% | Cells with neurities (%) (5 × 10^-5 M): 28 ± 7%
